From PMC4742142, “Identification of novel, in vivo active Chk1 inhibitors utilizing structure guided drug design” (Oncotarget, 2015)

How the values were obtained:
Colo205 = test: Potentiation assay (MTS, 72 hours); format: cell-based, human; conditions: IC50(cytotoxic agent alone) / IC50(combination treatment)
Method: (§1) 5 × 10^3 cells per well were seeded in 96-well plates and incubated overnight. […] The effect on cell proliferation was determined using a CellTiter 96 AQueous One Solution Cell Proliferation Assay (MTS, Promega).

HCT116 = test: Potentiation assay (MTS, 72 hours); format: cell-based, human; conditions: IC50(cytotoxic agent alone) / IC50(combination treatment)
Method: as §1

SW620 = test: Potentiation assay (MTS, 72 hours); format: cell-based, human; conditions: IC50(cytotoxic agent alone) / IC50(combination treatment)
Method: as §1

NCI-H520 = test: Potentiation assay (MTS, 72 hours); format: cell-based, human; conditions: IC50(cytotoxic agent alone) / IC50(combination treatment)
Method: as §1

A549 = test: Potentiation assay (MTS, 72 hours); format: cell-based, human; conditions: IC50(cytotoxic agent alone) / IC50(combination treatment)
Method: as §1

PC3 = test: Potentiation assay (MTS, 72 hours); format: cell-based, human; conditions: IC50(cytotoxic agent alone) / IC50(combination treatment)
Method: as §1

H460 = test: Potentiation assay (MTS, 72 hours); format: cell-based, human; conditions: IC50(cytotoxic agent alone) / IC50(combination treatment)
Method: as §1

HT29 = test: Potentiation assay (MTS, 72 hours); format: cell-based, human; conditions: IC50(cytotoxic agent alone) / IC50(combination treatment)
Method: as §1

SW620 xenograft = SW620 xenograft antitumor efficacy; conditions: for Median TTE: SW620, 100 mg/kg irinotecan alone (V158411 0 mg/kg); for %TGD / T-C: SW620, 100 mg/kg irinotecan alone
Excerpt: (§2) Xenograft studies were undertaken by Charles River Laboratories Discovery Services, North Carolina. On the day of tumor cell implant, Colo205 cells were harvested and resuspended in 50% Matrigel matrix (BD Biosciences) in PBS at a concentration of 5 × 10^6 cells/mL. Each test mouse received 1 × 10^6 Colo205 cells implanted subcutaneously (SC) in the flank of female athymic nude mice (HRLN or NCr nu/nu), and tumor growth was monitored as the average size approached 100-150 mm^3. The SW620 tumor line was maintained by serial SC transplantation in female athymic nude mice (HRLN nu/nu). Tumor fragments, approximately 1 mm^3 each, were implanted SC into the right flank of each animal and allowed to grow towards a target size of 100-150 mm^3. On day 1 of the study, tumors were randomized into treatment groups before compound administration.
(§3) V158411 was formulated in D5W and administered via IV injection into the tail vein. Cyclic treatment regimens were followed and treatment ranged from 2-3 cycles.
(§4) Tumor size was measured with electronic calipers and tumor volume calculated according to the formula ((width × width) × length) /2.
(§5) The study endpoint was defined as a tumor volume of 750 mm^3 for Colo205 or 1500 mm^3 for SW620, or day 60, whichever came first. Each animal was euthanized when its' tumor reached this endpoint. The time to endpoint (TTE) for each mouse was calculated from the equation TTE = (log10(endpoint volume)-b)/m where b is the intercept and m the slope of the line obtained by linear regression of a log-transformed tumor growth data set.

Colo205 xenografts = test: Colo205 xenograft antitumor efficacy; format: in vivo; conditions: Colo205, 75 mg/kg IP irinotecan alone (V158411 0 mg/kg)
Excerpt: as §2, §3, §4, §5

Chk1 = target: T1, Chk1 (Homo sapiens, UniProt O14757); test: In vitro kinase assay, Chk1; format: biochemical; conditions: for LE: ligand efficiency, Chk1
T1 sequence (O14757 1-476): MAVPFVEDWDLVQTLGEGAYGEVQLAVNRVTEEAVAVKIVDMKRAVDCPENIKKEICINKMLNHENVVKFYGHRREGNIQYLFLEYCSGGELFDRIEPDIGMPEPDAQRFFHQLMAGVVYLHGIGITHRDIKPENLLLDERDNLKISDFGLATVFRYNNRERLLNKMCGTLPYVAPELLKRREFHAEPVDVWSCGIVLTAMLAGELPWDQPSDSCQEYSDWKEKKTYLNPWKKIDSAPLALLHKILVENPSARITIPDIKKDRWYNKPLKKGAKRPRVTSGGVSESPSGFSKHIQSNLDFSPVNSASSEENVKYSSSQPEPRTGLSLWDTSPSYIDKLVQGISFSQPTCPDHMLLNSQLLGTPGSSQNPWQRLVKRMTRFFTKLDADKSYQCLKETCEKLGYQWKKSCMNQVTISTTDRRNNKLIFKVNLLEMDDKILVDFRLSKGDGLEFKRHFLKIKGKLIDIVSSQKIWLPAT
Method: Kinase assays were performed as previously described.

SMILES	Fold Potentiation by V158411 (400nM) (Colo205)	Fold Potentiation by V158411 (400nM) (HCT116)	Fold Potentiation by V158411 (400nM) (SW620)	Fold Potentiation by V158411 (400nM) (NCI-H520)	Fold Potentiation by V158411 (400nM) (A549)	Fold Potentiation by V158411 (400nM) (PC3)	Fold Potentiation by V158411 (400nM) (H460)	Fold Potentiation by V158411 (400nM) (HT29)	IC50 (Chk1)	further results
CC[C@@]1(O)C(=O)OCc2c1cc1n(c2=O)Cc2cc3ccccc3nc2-1 [Camptothecin]	6.0 fold	0.8 fold	10.6 fold	1.8 fold	0.7 fold	6.3 fold	0.8 fold	11.4 fold	–	–
N.N.[Cl][Pt][Cl] [Cisplatin]	5.3 fold	0.6 fold	2.5 fold	1.9 fold	0.8 fold	1.7 fold	0.7 fold	10.1 fold	–	–
Nc1ccn([C@@H]2O[C@H](CO)[C@@H](O)C2(F)F)c(=O)n1 [Gemcitabine]	8.4 fold	1.5 fold	3.0 fold	8.9 fold	4.5 fold	6.7 fold	4.5 fold	27.1 fold	–	–
CCc1c2c(nc3ccc(OC(=O)N4CCC(N5CCCCC5)CC4)cc13)-c1cc3c(c(=O)n1C2)COC(=O)[C@]3(O)CC [Irinotecan, reference compound]	–	–	–	–	–	–	–	–	–	Median TTE (SW620 xenograft; study with 30 mg/kg V158411, endpoint 1500 mm^3): 24.1 days; Median TTE (SW620 xenograft; study with 60 mg/kg V158411, endpoint 1500 mm^3): 24.1 days; %TGD (SW620 xenograft; study with 30 mg/kg V158411): 81%; T-C (SW620 xenograft; study with 30 mg/kg V158411): 10.8; %TGD (SW620 xenograft; study with 60 mg/kg V158411): 75%; T-C (SW620 xenograft; study with 60 mg/kg V158411): 10.3; %TGD (Colo205 xenografts): 78%; T-C (Colo205 xenografts): 15.5; Median TTE (Colo205 xenografts; q7d 3 cycles, endpoint 750 mm^3): 35.4 days
CCc1c2c(nc3ccc(O)cc13)-c1cc3c(c(=O)n1C2)COC(=O)[C@]3(O)CC [SN38]	> 10 fold	1.3 fold	7.6 fold	–	–	> 10 fold	1.0 fold	18.7 fold	–	–
O=c1[nH]cccc1-c1nc2ccccc2[nH]1 [VER-154637]	–	–	–	–	–	–	–	–	~100 µM	LE (Chk1): > 0.30
CCNC(=O)c1c[nH]c(=O)c(-c2cc3ccccc3[nH]2)c1 [VER-154931]	–	–	–	–	–	–	–	–	4.2 µM	Chk1 IC50 (Chk1): low μM inhibitor
Cn1cc(NC(=O)c2c[nH]c(=O)c(-c3cc4ccccc4[nH]3)c2)cn1 [VER-155175]	–	–	–	–	–	–	–	–	> 400 µM	Chk1 IC50 (Chk1): disappointing affinity
O=C(Nc1cnn(Cc2ccccc2)c1)c1c[nH]c(=O)c(-c2cc3ccccc3[nH]2)c1 [VER-155422]	–	–	–	–	–	–	–	–	0.017 µM	LE (Chk1): 0.35
O=C(Nc1c[nH]c(=O)c(-c2cc3ccccc3[nH]2)c1)c1cnn(Cc2ccccc2)c1 [VER-155991]	–	–	–	–	–	–	–	–	0.0076 µM	increase in potency (Chk1; Chk1 IC50, inversion of the amide linker, versus VER-155422): 2 fold
